Results published in ChEMBL document CHEMBL1201862, “PubChem BioAssay data set” (2004).
Where a name gives a salt, the structure may show the parent alone. Activity calls are given as the source filed them.

Experiments:
[1] = Late-stage results from the probe development effort to identify antagonists of arginine vasopressin receptor 1a (AVPR1a): fluorescence-based cell-based dose response AVPR1a inhibition assay.; type: functional
Vasopressin V1b receptor = Vasopressin V1b receptor (Homo sapiens, UniProt P47901); experiment: Late-stage results from the probe development effort to identify antagonists of arginine vasopressin receptor 1a (AVPR1a): fluorescence-based cell-based dose response AVPR1b inhibition counterscreen assay.; type: functional
Vasopressin V2 receptor = Vasopressin V2 receptor (Homo sapiens, UniProt P30518); experiment: Late-stage results from the probe development effort to identify antagonists of arginine vasopressin receptor 1a (AVPR1a): fluorescence-based cell-based dose response AVPR2 inhibition counterscreen assay.; type: functional
[2] = Late-stage results from the probe development effort to identify antagonists of arginine vasopressin receptor 1a (AVPR1a): fluorescence-based cell-based dose response OXTR inhibition counterscreen assay.; type: functional
[3] = biological target: G-protein coupled receptor 183 (Homo sapiens, UniProt P32249); experiment: SAR confirmation of small molecule antagonists of the EBI2 receptor via a luminescent beta-arrestin assa.; type: functional
[4] = biological target: NAD-dependent protein deacylase sirtuin-5, mitochondrial (Homo sapiens, UniProt Q9NXA8); experiment: SIRT5 desuccinylase inhibitors, dose response, biochemical, fluorescence imaging, cherry-pick, set 5 (AID 720591);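 note: desuccinylation of succinyl peptide AMC substrate read as fluorescence after trypsin release; potency of inhibitors that lower fluorescence and may act on trypsin instead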
[5] = HeLa 2N DNA content increase, dose response, cell-based, IC50 (AID 1117349); type: functional
[6] = Concentration-dependent survival of SW480 colon cancer line, luminescence detection with CellTiter-Glo, half-maximal inhibitory concentration (AID 1117338); type: functional
[7] = RKO cell viability reduction, dose response, CellTiter-Glo luminescence (AID 1117322); type: functional
[8] = cytotoxicity toward HCT116 cells – cell-based, CellTiter-Glo luminescence, IC50, dose response (AID 1117332); type: functional; conditions: HCT-116
[9] = SNU-C1 cell viability reduction, dose response, CellTiter-Glo luminescence (AID 1117323); type: functional, cell-based
[10] = half-maximal inhibitory concentration for glucagon-like peptide-1 release, STC-1 cell line, dose-response (AID 1117345); type: functional, cell-based
[11] = cytotoxicity toward Colo320 cells – cell-based, CellTiter-Glo luminescence, IC50, dose response (AID 1117334); type: functional; conditions: COLO 320
[12] = HeLa 4N DNA content increase, dose response, cell-based, IC50 (AID 1117351); type: functional
[13] = cytotoxicity toward HT-29 cells – cell-based, CellTiter-Glo luminescence, IC50, dose response (AID 1117330); type: functional
[14] = CellTiter-Glo luminescent dose response of DLD-1 viability loss (AID 1117352); type: functional
[15] = HCT116 cell viability decrease, GSK3B pretreatment – CellTiter-Glo, IC50, dose response (AID 1117339); type: functional; conditions: HCT-116
[16] = Glucagon-like peptide 1 release potency, NCI-H716 cell line, dose-response, half-maximal inhibitory concentration (AID 1117344); type: functional, cell-based
[17] = fibronectin fibrillogenesis inhibitors in fibroblasts, dose response, AH1F cells, Alexa488-fibronectin fluorescence, cherry-pick, set 2 (AID 1117283); type: functional, cell-based

Vasopressin V1b receptor, sequence (P47901 whole entry): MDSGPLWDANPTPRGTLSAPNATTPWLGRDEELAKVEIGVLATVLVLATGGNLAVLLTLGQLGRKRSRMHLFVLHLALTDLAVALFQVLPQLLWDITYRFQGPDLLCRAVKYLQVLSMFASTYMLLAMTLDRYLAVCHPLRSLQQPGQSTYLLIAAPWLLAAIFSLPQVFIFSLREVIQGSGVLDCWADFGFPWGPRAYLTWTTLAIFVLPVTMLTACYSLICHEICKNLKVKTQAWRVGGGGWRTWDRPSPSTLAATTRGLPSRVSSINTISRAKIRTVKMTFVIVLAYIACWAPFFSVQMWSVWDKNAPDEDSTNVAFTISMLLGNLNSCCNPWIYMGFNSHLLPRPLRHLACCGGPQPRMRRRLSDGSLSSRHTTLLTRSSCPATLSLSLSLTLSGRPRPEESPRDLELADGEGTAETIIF
G-protein coupled receptor 183, sequence (P32249 whole entry): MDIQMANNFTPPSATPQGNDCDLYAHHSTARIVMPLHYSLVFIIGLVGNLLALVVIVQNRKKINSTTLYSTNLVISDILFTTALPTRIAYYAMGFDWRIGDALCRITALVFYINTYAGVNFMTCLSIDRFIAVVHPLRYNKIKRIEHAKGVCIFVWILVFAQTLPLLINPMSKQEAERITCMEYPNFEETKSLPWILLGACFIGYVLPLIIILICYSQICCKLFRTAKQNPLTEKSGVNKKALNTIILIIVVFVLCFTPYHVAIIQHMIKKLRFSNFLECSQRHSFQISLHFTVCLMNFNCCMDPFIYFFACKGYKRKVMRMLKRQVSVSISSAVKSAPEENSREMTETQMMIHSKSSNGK
Vasopressin V2 receptor, sequence (P30518 whole entry): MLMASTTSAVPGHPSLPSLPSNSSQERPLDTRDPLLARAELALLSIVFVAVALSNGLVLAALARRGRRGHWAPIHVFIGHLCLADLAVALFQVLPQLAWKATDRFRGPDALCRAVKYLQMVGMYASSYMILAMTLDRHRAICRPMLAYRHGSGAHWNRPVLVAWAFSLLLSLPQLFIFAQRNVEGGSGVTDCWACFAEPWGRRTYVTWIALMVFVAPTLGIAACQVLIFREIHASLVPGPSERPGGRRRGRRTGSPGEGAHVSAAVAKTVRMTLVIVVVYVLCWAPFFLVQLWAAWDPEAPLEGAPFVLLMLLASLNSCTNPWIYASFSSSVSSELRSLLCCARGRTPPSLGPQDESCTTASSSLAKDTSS
NAD-dependent protein deacylase sirtuin-5, mitochondrial, sequence (Q9NXA8 whole entry): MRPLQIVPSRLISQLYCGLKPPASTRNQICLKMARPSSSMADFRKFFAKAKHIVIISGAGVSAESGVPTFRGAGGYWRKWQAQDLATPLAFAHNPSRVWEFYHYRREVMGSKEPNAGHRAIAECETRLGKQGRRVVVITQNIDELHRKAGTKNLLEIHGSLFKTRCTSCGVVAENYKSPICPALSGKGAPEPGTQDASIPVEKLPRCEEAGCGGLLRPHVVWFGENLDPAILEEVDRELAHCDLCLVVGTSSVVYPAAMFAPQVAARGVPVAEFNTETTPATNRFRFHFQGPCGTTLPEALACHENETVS

Structure (SMILES): Cc1ccccc1N1CCN(C(=O)N(CC2CC2)c2ccccc2)CC1
- IC50 [1]: 0.019 µM (active)
- IC50 (Vasopressin V1b receptor): 22 µM (inactive)
- IC50 (Vasopressin V2 receptor): 4.89 µM (active)
- IC50 [2]: 4.9 µM (active)

Structure (SMILES): CCC(C)N1CCN(C(=O)/C=C/c2ccc(Br)cc2)CC1 (centres undefined)
- IC50 [3]: 0.00223 µM (active)

Structure (SMILES): CNCCC(Oc1ccccc1OC)c1ccccc1 (centres undefined) [NISOXETINE HYDROCHLORIDE]
- AC50 [4]: > 30 µM (inactive)

Structure (SMILES): CCN(C(=O)N1CCN(c2ccccc2C)CC1)c1ccc(OC)cc1
- IC50 [1]: 0.062 µM (active)
- IC50 (Vasopressin V1b receptor): 8.81 µM (active)
- IC50 (Vasopressin V2 receptor): 6 µM (active)
- IC50 [2]: 0.5 µM (active)

Structure (SMILES): CCN(CC)CCOc1ccc(C(O)(Cc2ccc(Cl)cc2)c2ccc(C)cc2)cc1 (centres undefined) [TRIPARANOL]
- IC50 [5]: > 10 µM (inactive)
- IC50 [6]: 3.76 µM (active)
- IC50 [7]: 0.299 µM (active)
- IC50 [8]: > 20 µM (inactive)
- IC50 [9]: 2.46 µM (active)
- IC50 [10]: > 40 µM (inactive)
- IC50 [11]: 8.99 µM (inactive)
- IC50 [12]: > 10 µM (inactive)
- IC50 [13]: 3.17 µM (active)
- IC50 [14]: > 20 µM (inactive)
- IC50 [15]: 3.74 µM (active)
- IC50 [16]: 36.1 µM (inactive)

Structure (SMILES): O=C(c1ccc(Br)cc1)N1CCN(Cc2ccc(Cl)cc2)CC1
- IC50 [3]: 0.478 µM (active)

Structure (SMILES): C[C@@H]1CN([C@H](C)CO)C(=O)c2cc(-c3ccccc3)cnc2O[C@@H]1CN(C)C(=O)c1cccc(F)c1
- AC50 [17]: > 70 µM (inactive)
